This data set in a line: activity coefficient (dimensionless); of the first substance listed, at infinite dilution; xn = mol fraction of the nth substance listed. Particulars: 101 kPa, Liquid, Chromatography, x1 = 0.

± gives the expanded uncertainty stated by the source.

On to `CCCCCCCCCC` [decane] + CCCCCCCC[N+]1(C)CCCC1.O=S(=O)([N-]S(=O)(=O)C(F)(F)F)C(F)(F)F, for which the activity coefficient runs as follows: (323 K) 14.8 ± 0.88; (333 K) 12.5 ± 0.75; (343.1 K) 11 ± 0.66.
On to `CCCCCCCC` [octane] + CCCCCCCCCC[N+]1(C)CCCC1.O=S(=O)([N-]S(=O)(=O)C(F)(F)F)C(F)(F)F, for which the activity coefficient reads like this: (322.6 K) 6.13 ± 0.64; (332.5 K) 5.92 ± 0.62; (342.8 K) 5.76 ± 0.61.
On to `Cc1ccccc1C` [1,2-dimethylbenzene] + CCCCCCCCCC[N+]1(C)CCCC1.O=S(=O)([N-]S(=O)(=O)C(F)(F)F)C(F)(F)F, for which the activity coefficient (322.6 K) is 0.92 ± 0.09, the activity coefficient (332.5 K) was determined as 0.94 ± 0.1 and the activity coefficient (342.8 K) turned out to be 0.96 ± 0.1.
Regarding `CC1CCCC1` [methylcyclopentane] + CCCCCCCCCC[N+]1(C)CCCC1.O=S(=O)([N-]S(=O)(=O)C(F)(F)F)C(F)(F)F, the activity coefficient amounted to 2.9 ± 0.3 (322.6 K), 2.76 ± 0.29 (332.5 K) and 2.66 ± 0.28 (342.8 K).
On to `C=CCCCC` [hex-1-ene] + CCCCCCCCCC[N+]1(C)CCCC1.O=S(=O)([N-]S(=O)(=O)C(F)(F)F)C(F)(F)F, for which the activity coefficient worked out at 2.68 ± 0.28 (322.6 K), 2.62 ± 0.28 (332.5 K) and 2.57 ± 0.27 (342.8 K).
Turning to `C#CCCCC` [1-hexyne] + CCCCCC[N+]1(C)CCCC1.O=S(=O)([N-]S(=O)(=O)C(F)(F)F)C(F)(F)F, the activity coefficient by setting is: (322.9 K) 2.1 ± 0.22; (333 K) 2.1 ± 0.22; (343.1 K) 2.09 ± 0.22.
As to `c1ccccc1` [benzene] + CCCCCCCC[N+]1(C)CCCC1.O=S(=O)([N-]S(=O)(=O)C(F)(F)F)C(F)(F)F, the activity coefficient turned out to be 0.6 ± 0.06 (323 K), 0.62 ± 0.07 (333 K) and 0.61 ± 0.07 (343.1 K).
Regarding `CCCO` [propan-1-ol] + CCCCCC[N+]1(C)CCCC1.O=S(=O)([N-]S(=O)(=O)C(F)(F)F)C(F)(F)F, the activity coefficient (322.9 K) is 1.72 ± 0.18, the activity coefficient (333 K) was 1.64 ± 0.17 and the activity coefficient (343.1 K) worked out at 1.49 ± 0.15.
For `CC(C)CO` [2-methyl-1-propanol] + CCCCCCCC[N+]1(C)CCCC1.O=S(=O)([N-]S(=O)(=O)C(F)(F)F)C(F)(F)F, the activity coefficient runs as follows: (323 K) 1.59 ± 0.17; (333 K) 1.44 ± 0.15; (343.1 K) 1.22 ± 0.13.
For `CC(C)OC(C)C` [diisopropyl ether] + CCCCCCCCCC[N+]1(C)CCCC1.O=S(=O)([N-]S(=O)(=O)C(F)(F)F)C(F)(F)F, the activity coefficient by setting is: (322.6 K) 2.29 ± 0.24; (332.5 K) 2.28 ± 0.24; (342.8 K) 2.26 ± 0.24.
With `CCOCC` [diethyl ether] + CCCCCC[N+]1(C)CCCC1.O=S(=O)([N-]S(=O)(=O)C(F)(F)F)C(F)(F)F, the activity coefficient (322.9 K) was found to be 1.56 ± 0.16, the activity coefficient (333 K) came to 1.76 ± 0.18 and the activity coefficient (343.1 K) turned out to be 1.76 ± 0.18.
For `c1ccncc1` [pyridine] + CCCCCCCC[N+]1(C)CCCC1.O=S(=O)([N-]S(=O)(=O)C(F)(F)F)C(F)(F)F, the activity coefficient stood at 0.42 ± 0.05 (323 K), 0.39 ± 0.05 (333 K) and 0.41 ± 0.05 (343.1 K).
In the case of `C=CCCCC` [hex-1-ene] + CCCCCCCC[N+]1(C)CCCC1.O=S(=O)([N-]S(=O)(=O)C(F)(F)F)C(F)(F)F, the activity coefficient (323 K) worked out at 3.17 ± 0.33, the activity coefficient (333 K) was determined as 3.02 ± 0.32 and the activity coefficient (343.1 K) was 2.58 ± 0.27.
For `CCCC(C)=O` [pentan-2-one] + CCCCCC[N+]1(C)CCCC1.O=S(=O)([N-]S(=O)(=O)C(F)(F)F)C(F)(F)F, the activity coefficient (322.9 K) was determined as 0.59 ± 0.06, the activity coefficient (333 K) worked out at 0.65 ± 0.07 and the activity coefficient (343.1 K) was 0.66 ± 0.07.
As to `C#CCCCCC` [1-heptyne] + CCCCCCCC[N+]1(C)CCCC1.O=S(=O)([N-]S(=O)(=O)C(F)(F)F)C(F)(F)F, the activity coefficient by setting is: (323 K) 1.94 ± 0.2; (333 K) 1.89 ± 0.2; (343.1 K) 1.9 ± 0.2.
Take `CC(C)O` [propan-2-ol] + CCCCCC[N+]1(C)CCCC1.O=S(=O)([N-]S(=O)(=O)C(F)(F)F)C(F)(F)F: the activity coefficient (333 K) was 1.53 ± 0.16 and the activity coefficient (343.1 K) was found to be 1.4 ± 0.14.
In the case of `CCCCCCCC` [octane] + CCCCCCCC[N+]1(C)CCCC1.O=S(=O)([N-]S(=O)(=O)C(F)(F)F)C(F)(F)F, the activity coefficient was 8.1 ± 0.85 (323 K), 7.8 ± 0.82 (333 K) and 6.54 ± 0.69 (343.1 K).
As to `CC1CCCC1` [methylcyclopentane] + CCCCCC[N+]1(C)CCCC1.O=S(=O)([N-]S(=O)(=O)C(F)(F)F)C(F)(F)F, the activity coefficient by setting is: (322.9 K) 4.9 ± 0.51; (333 K) 4.52 ± 0.47; (343.1 K) 4.76 ± 0.5.
Regarding `CCCCCC` [hexane] + CCCCCC[N+]1(C)CCCC1.O=S(=O)([N-]S(=O)(=O)C(F)(F)F)C(F)(F)F, the activity coefficient is, setting by setting: (322.9 K) 7.74 ± 0.81; (333 K) 7.38 ± 0.78; (343.1 K) 7.11 ± 0.75.
Take `C[N+](=O)[O-]` [nitromethane] + CCCCCCCC[N+]1(C)CCCC1.O=S(=O)([N-]S(=O)(=O)C(F)(F)F)C(F)(F)F: the activity coefficient (323 K) was determined as 0.54 ± 0.06, the activity coefficient (333 K) is 0.51 ± 0.06 and the activity coefficient (343.1 K) amounted to 0.48 ± 0.05.
On to `C#CCCCCC` [1-heptyne] + CCCCCC[N+]1(C)CCCC1.O=S(=O)([N-]S(=O)(=O)C(F)(F)F)C(F)(F)F, for which the activity coefficient (322.9 K) was determined as 2.24 ± 0.24, the activity coefficient (333 K) was determined as 2.79 ± 0.29 and the activity coefficient (343.1 K) turned out to be 2.78 ± 0.29.
Turning to `Cc1cccc(C)c1` [1,3-dimethylbenzene] + CCCCCCCC[N+]1(C)CCCC1.O=S(=O)([N-]S(=O)(=O)C(F)(F)F)C(F)(F)F, the activity coefficient came to 1 ± 0.1 (323 K), 0.84 ± 0.09 (333 K) and 1.05 ± 0.11 (343.1 K).
In the case of `CCCCCCCCC` [nonane] + CCCCCCCCCC[N+]1(C)CCCC1.O=S(=O)([N-]S(=O)(=O)C(F)(F)F)C(F)(F)F, the activity coefficient by setting is: (322.6 K) 8.32 ± 0.87; (332.5 K) 8.01 ± 0.84; (342.8 K) 7.65 ± 0.8.
As for `Cc1ccc(C)cc1` [1,4-dimethylbenzene] + CCCCCCCCCC[N+]1(C)CCCC1.O=S(=O)([N-]S(=O)(=O)C(F)(F)F)C(F)(F)F, the activity coefficient (322.6 K) worked out at 1 ± 0.1, the activity coefficient (332.5 K) stood at 1.01 ± 0.1 and the activity coefficient (342.8 K) was 1.03 ± 0.1.
For the compound `C#CCCCC` [1-hexyne] + CCCCCCCCCC[N+]1(C)CCCC1.O=S(=O)([N-]S(=O)(=O)C(F)(F)F)C(F)(F)F, the activity coefficient is 1.5 ± 0.16 (322.6 K), 1.48 ± 0.15 (332.5 K) and 1.47 ± 0.15 (342.8 K).
Turning to `CC#N` [acetonitrile] + CCCCCC[N+]1(C)CCCC1.O=S(=O)([N-]S(=O)(=O)C(F)(F)F)C(F)(F)F, the activity coefficient by setting is: (322.9 K) 0.46 ± 0.05; (333 K) 0.46 ± 0.05; (343.1 K) 0.48 ± 0.05.
For the compound `CC(C)O` [propan-2-ol] + CCCCCCCC[N+]1(C)CCCC1.O=S(=O)([N-]S(=O)(=O)C(F)(F)F)C(F)(F)F, the activity coefficient by setting is: (323 K) 1.4 ± 0.14; (333 K) 1.27 ± 0.13; (343.1 K) 1.06 ± 0.11.
In the same order, the values of `CCO` [ethanol] + CCCCCCCC[N+]1(C)CCCC1.O=S(=O)([N-]S(=O)(=O)C(F)(F)F)C(F)(F)F are 1.33 ± 0.14, 1.26 ± 0.13 and 0.98 ± 0.1.

These data come from the NIST ThermoML archive (doi:10.1021/je300692s).
